Measured values taken from publication PMC2942996 (Journal of molecular biology, 2010).

B1: isoprene synthase (PcISPS) (Populus tremula x Populus alba; C533W/K308R/N59D) (protein)
chain: EARRSADYEPNSWDYDFLLSSDTDESIEVYKDKAKKLEAEVRREINNEKAEFLTLLELIDNVQRLGLGYRFESDIRRALDRFVSSGGFDGVTKTSLHATALSFRLLRQHGFEVSQEAFSGFKDQNGNFLENLKEDTKAILSLYEASFLALEGENILDEARVFAISHLKELSEEKIGKELAEQVNHALELPLHRRTQRLEAVWSIEAYRKKEDANQVLLELAILDYNMIQSVYQRDLRETSRWWRRVGLATKLHFARDRLIESFYWAVGVAFEPQYSDCRNSVAKMFSFVTIIDDIYDVYGTLDELELFTDAVERWDVNAINDLPDYMKLCFLALYNTINEIAYDNLKDKGENILPYLTKAWADLCNAFLQEAKWLYNKSTPTFDDYFGNAWKSSSGPLQLIFAYFAVVQNIKKEEIENLQKYHDIISRPSHIFRLCNDLASASAEIARGETANSVSCYMRTKGISEELATESVMNLIDETWKKMNKEKLGGSLFAKPFVETAINLARQSHCTYHNGDAHTSPDELTRKRVLSVITEPILPFER

Experiments:
[1] = target: isoprene synthase (PcISPS) (Populus tremula x Populus alba, UniProt Q9AR86, C533W/K308R/N59D); assay: competitive inhibition of isoprene formation, SBSE GC-MS assay; type: biochemical
enzyme kinetics = substrate: CC(C)=CCOP(=O)(O)OP(=O)(O)O; assay: enzyme kinetics; type: biochemical, Populus tremula x Populus alba; conditions: Mg2+ active site

Molecule | Ki [1] [µM] | Km (enzyme kinetics) [µM]
CC(C)=CCC/C(C)=C/COP(=O)(O)OP(=O)(O)O [GPP, geranyl diphosphate] | 550 | 
B1 |  | 3000
